Experimental data: publication PMC7927014, “Novel Small Molecule Hsp90/Cdc37 Interface Inhibitors Indirectly Target K-Ras-Signaling” (Cancers, 2021)

Tests used:
Hsp90/Cdc37 = assay: FIMM screening in split Renilla luciferase assay with hypomorphic NRL-Hsp90 construct, 20 μM; format: biochemical; settings: for Average RLU (FIMM Screening-1): DMSO 50019
Description: In the second in silico screening of the FIMM database, we employed the four identified chemical scaffolds (Figure S2B) for the visual inspection of the FIMM compound library. […] All of the purchased compounds were validated in vitro at 20 μM using the split Renilla luciferase assay.
The Hsp90/Cdc37 split Renilla luciferase assay using the full length Hsp90 for the compound screening was described previously. […] After 48 h, the cells were trypsinized and washed with PBS. The harvested cells were lysed in 1 mL of the 1x lysis buffer provided in the Renilla Luciferase Reporter Assay System Kit from Promega (cat. E2820), and were incubated on ice for 10 min. The cell lysates were then cleared by centrifugation at 13,000× g for 1 min. […] After this, the screening/test compounds or DMSO—as indicated—were added to each well. In total, 5 µL NRL-Hsp90- or NRL-N-Hsp90-lysate was added to each well, one row at a time. Subsequently, the plate was incubated for 5 min at room temperature (RT). […] Just before the reading, 20 µL assay buffer containing 2× Renilla luciferase substrate (coelenterazine) was added. For the FIMM screening, sample wells were read on a PHERAstar plate reader (BMG LABTECH) at a gain level of 4000, after 10 s shaking, using a hypomorph of NRL-Hsp90. For the subsequent validations of the compounds, sample wells with the above-described assay constructs were read using a synergy H1 Hybrid Multi-Mode reader (BioTek) in the luminescence detection mode, as described previously in detail.

MDA-MB-231 microtumors = assay: Chick chorioallantoic membrane (CAM) microtumor assay; format: in vivo, chick embryo; settings: 5 days
Description: The fertilized eggs were incubated at 37 °C in a 55% to 60% humidified egg hatcher incubator (MG100, Fiem). After 8 days, 2 million MDA-MB-231 cells were resuspended in 1× PBS and Matrigel (BD Biosciences) at a ratio of 1:1, and were then deposited within sterilized 7 mm diameter plastic rings cut from a plastic pipette (cat. no. LW4111, Alpha Laboratories Limited) on a surface of chicken embryo CAM. The xenografted tumors were treated with 20 µL 0.1% DMSO vehicle control or the test compound diluted in 1× PBS once a day, starting from 24 h after cell seeding. The microtumors were harvested after 5 days of treatment. The microtumors were collected in pre-weighted 1.5 mL Eppendorf tubes containing 500 µL PBS, and the tumor mass was determined by the difference of the weights.

MIA PaCa-2 cells = assay: 2D cell proliferation (alamarBlue); format: cell-based; settings: Homo sapiens; MIA PaCa-2 (pancreas), 72 h
Description: (§1) Per well, 500–700 cells were seeded in 96-well flat bottom culture plates in 100 µL. After 24 h, the cells were treated with 0.1% DMSO vehicle control or test compounds diluted in a medium using a 1:2 dilution-series, starting at 100 µM. The plates were further incubated for 72 h. The cell viability was measured after the addition of 10% alamarBlue reagent per well (cat. no. DAL1100, Thermo Fisher Scientific). The fluorescence intensity (excitation 560 nm and emission 590 nm) was measured after 4 h by the use of a H1 Hybrid Multi-Mode reader.

HEK293 EBNA cells = assay: 2D cell proliferation (alamarBlue); format: cell-based; settings: Homo sapiens, 72 h
Description: as §1

HCC-44 cells = assay: 2D cell proliferation (alamarBlue); format: cell-based; settings: Homo sapiens, HCC44; HCC-44 (lung, G12C), 72 h
Description: as §1

MCF 10A cells = assay: 2D cell proliferation (alamarBlue); format: cell-based; settings: Homo sapiens, 72 h
Description: as §1

SK-BR-3 cells = assay: 2D cell proliferation (alamarBlue); format: cell-based; settings: Homo sapiens; SK-BR-3 (breast, n.a.), 72 h
Description: as §1

Hsp90α (N-terminal) = target: T1, Hsp90α (N-terminal) (Homo sapiens, UniProt P07900); assay: Hsp90 N-terminal ATP-binding site competition assay (FITC-geldanamycin fluorescence polarization)
T1 construct: purchased BPS Bioscience 50298
Description: The reaction was initiated by adding 35 ng/μL purified recombinant Hsp90α, and was incubated at RT with slow shaking for 2 h. All of the reactions were performed in a black, low binding NUNC microtiter plate, included in the kit, and the total reaction volume was 50 μL. The enzyme control was measured without the test compound, and the enzyme background control was measured without the test compound or Hsp90α. […] All of the controls and the blank contained 10% DMSO, as did all of the samples of the test compounds. All of the samples were analyzed as duplicates. […] The blank value was subtracted from all of the other values, and the fluorescence polarization was determined as:(1) mP = ((III − I⊥)/(III+ I⊥)) × 1000 where III is the intensity of the parallel, and I┴ the intensity of the perpendicular polarized light.

Hsp90, Hsp70 = assay: Western blotting of Hsp90 and Hsp70 (heat shock response); format: cell-based; settings: Western blot, 24 h; four cancer cell lines; 17-AAG 2 μM
Description: The cells in the RIPA buffer were placed on ice for 20 min, and were then sonicated in ice cold water for 5 min. […] Equal amounts of protein were separated by 10% SDS-PAGE, and were then transferred onto a nitrocellulose membrane (cat. no. NBA 083C001EA, Protran) using a wet transfer system (Bio-Rad) or semidry Transferblot Turbo Transfer System (Bio-Rad). After the transfer, the membranes were blocked for 30 min in 5% skimmed milk dissolved in 1× TBST, and then incubated with 1:2000 primary antibodies in 5% BSA in TBST at 4 °C overnight.
The next day, the membranes were washed three times in TBST for 10 min, and then incubated with secondary antibodies (1:5000) diluted in 5% skimmed milk in TBST for 1 h at RT. […] All of the antigens and molecular weights in kDa are labelled next to the blots on the figures. Uncropped Western blot data are attached as Figure S6.

SMILES | normalized RLU (FIMM Screening-1) (Hsp90/Cdc37; DMSO = 1.00) | normalized RLU (FIMM Screening-2, scaffold based) (Hsp90/Cdc37; DMSO = 1.00) | Average RLU (FIMM Screening-1) (Hsp90/Cdc37; mean of 3 wells) [RLU] | Average RLU (FIMM Screening-2, scaffold based) (Hsp90/Cdc37; mean of 3 wells, DMSO 51006) [RLU] | microtumor growth on CAM (MDA-MB-231 microtumors; MDA-MB-231, 10 μM) | microtumor growth on CAM (MDA-MB-231 microtumors; MDA-MB-231, 20 μM) | IC50 (MIA PaCa-2 cells) [µM] | IC50 (HEK293 EBNA cells) [µM] | IC50 (HCC-44 cells) [µM] | IC50 (MCF 10A cells) [µM] | IC50 (SK-BR-3 cells) [µM] | competition with FITC-geldanamycin (ATP-pocket binding, polarization signal) (Hsp90α (N-terminal); 20 μM compound) | competition with FITC-geldanamycin (ATP-pocket binding, polarization signal) (Hsp90α (N-terminal); up to 50 μM (12.5, 25, 50 μM)) | induction of Hsp90 or Hsp70 expression (heat shock response) (Hsp90, Hsp70)
C/C1=C\[C@H](C)C[C@H](C)[C@H](Cc2cnco2)OC(=O)/C(C)=C/[C@H](C)C[C@H](C)[C@H](Cc2cnco2)OC1=O [conglobatin A, reference compound] | 0.51 | 0.49 | 25349 | 25048 | significantly reduced | – | – | – | – | – | – | – | – | –
N=C(CSS(=O)(=O)O)NCC12CC3CC(CC(C3)C1)C2 [×6506, [({N-[(adamantan-1-yl)methyl]carbamimidoyl}methyl)sulfanyl]sulfonic acid] | – | – | – | – | – | significantly reduced | 25 ± 2 | 47 | 28 ± 4 | 64 | 36 ± 4 | None of these four compounds displaced | did not do so | not inducing
CCOc1ccc(C(=O)c2ccc(O)c(O)c2O)cc1 [×1540, 2,3,4-TRIHYDROXY-4'-ETHOXYBENZOPHENONE] | 0.76 | – | 37962 | – | – | significantly reduced | 23 ± 2 | 89 | 49 ± 6 | 172 | 36 ± 3 | None of these four compounds displaced | did not do so | not inducing
